Data published in patent US5342853A, “Method of using nor-verapamil and nor-gallopamil as anti-arteriosclerotics” (priority 1989, dated 1994).

What was measured:
[1] = test system: atheromas (carotid artery); experiment: Antiatherogenic action on rabbits: carotid atheromas induced by electrical stimulation plus cholesterol-rich diet, 28 days; assay type: in vivo, male rabbits; details: for Action against arteriosclerosis (in words): general statement; for Inhibition of the development of atheromas (in words): compared with verapamil; for Maximum number of cell layers in the atheromas / Maximum number of cell layers in the atheromas, % change: 28 days; for Maximum number of cell layers in the atheromas, % change: vs untreated control
Experimental: (§1) Local atheromas are induced by the method of E. Betz and W. Schlote (Basic Res. Cardiol. 1979, 74, 10-20) by electrical stimulation of the carotid artery while, at the same time, feeding a cholesterol-rich diet (2%). At the end of the test period, the atheromas formed under the anode of the stimulating electrodes are removed and their size is determined histologically. Used as a measure of the size of the atheromas is the maximum number of their cell layers determined microscopically from serial sections. The extent of the antiarteriosclerotic action is established by comparison with untreated control animals. Verapamil and gallopamil are used as comparative substances.

[2] = as above; assay type: in vivo, male rabbits; details: rabbit, in vivo; rabbits, oral part of the daily dose (given with s.c. doses); read-out: Highest tolerated daily dose, oral
Experimental: as §1

[3] = rabbits, daily dose 2 × 1.0 mg/kg s.c. + 21.5 mg/kg oral, verapamil, nor-gallopamil *P < 0.05, nor-verapamil P = 0.682
[4] = rabbits, daily dose 2 × 1.0 mg/kg s.c. + 21.5 mg/kg oral
[5] = rabbits, highest tolerated daily dose 2 × 0.215 mg/kg s.c. + 4.64 mg/kg oral

SMILES: COc1ccc(CCNCCCC(C#N)(c2cc(OC)c(OC)c(OC)c2)C(C)C)cc1OC (centres unmarked) [Nor-gallopamil]
- Action against arteriosclerosis (in words) [1]: very good action against arteriosclerosis
- Inhibition of the development of atheromas (in words) ([1]; rabbits): inhibit the development of atheromas to about the same extent as verapamil
- Maximum number of cell layers in the atheromas [1, 3]: 12 ± 1.3
- Maximum number of cell layers in the atheromas, % change [1, 4]: -44%

SMILES: COc1ccc(CCNCCCC(C#N)(c2ccc(OC)c(OC)c2)C(C)C)cc1OC (centres unmarked) [Nor-verapamil, 5-[N-(3,4-dimethoxyphenethyl)-amino]-2-(3,4-dimethoxyphenyl)-2-isopropyl-valeronitrile]
- Action against arteriosclerosis (in words) [1]: very good action against arteriosclerosis
- Inhibition of the development of atheromas (in words) ([1]; rabbits): inhibit the development of atheromas to about the same extent as verapamil
- Maximum number of cell layers in the atheromas [1, 3]: 8.1 ± 1.3
- Maximum number of cell layers in the atheromas, % change [1, 4]: -40%

SMILES: COc1ccc(CCN(C)CCCC(C#N)(c2ccc(OC)c(OC)c2)C(C)C)cc1OC (centres unmarked) [Verapamil, 5-[N-(3,4-dimethoxyphenethyl)-N-methylamino]-2-(3,4-dimethoxyphenyl)-2-isopropyl-valeronitrile]
- Maximum number of cell layers in the atheromas [1, 3]: 3.8 ± 0.37
- Maximum number of cell layers in the atheromas, % change [1, 4]: -51%

SMILES: COc1ccc(CCN(C)CCCC(C#N)(c2cc(OC)c(OC)c(OC)c2)C(C)C)cc1OC (centres unmarked) [Gallopamil, 5-[N-(3,4-dimethoxyphenethyl)-N-methylamino]-2-(3,4,5-trimethoxyphenyl]-2-isopropyl-valeronitrile]
- Antiatherogenic effect (in words) ([1]; rabbits, at the highest tolerated daily dose): no antiatherogenic effect
- Maximum number of cell layers in the atheromas [1, 5]: 15 ± 0.99
- Maximum number of cell layers in the atheromas, % change [1, 5]: +7.1%
- MTD at 672 h [2]: 4.64 mg/kg
